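All cell lines were grown in 96-well plates and treated with compound for 48 hours. Here, GI50 denotes the concentration required for 50% inhibition of growth.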 Calls of active or inactive are those of the source. Rule as the data show it: active = GI50 up to about 1.1 µM and inactive = higher.
Legend:
Assay in all cases: NCI-60 cell line screen, 48 h
[1] = test system: SK-MEL-5
[2] = test system: EKVX
[3] = test system: LOX IMVI
[4] = test system: SF-268
[5] = test system: MDA-N
[6] = test system: HCT-116
[7] = test system: U-251
[8] = test system: IGROV-1
[9] = test system: MDA-MB-435
[10] = test system: NCI-H226
[11] = test system: SF-539
[12] = test system: UO-31
[13] = test system: KM12
[14] = test system: UACC-62
[15] = test system: SN12C
[16] = test system: SK-MEL-2
[17] = test system: SK-OV-3
[18] = test system: A549
[19] = test system: HL-60
[20] = test system: SNB-75

## O=c1c(Br)c(-c2ccccc2)[s+]([O-])c2ccccc12 (stereo not given)
[1]
  GI50: 11.5 µM (inactive)
[2]
  GI50: 16.4 µM (inactive)
[3]
  GI50: 11.8 µM (inactive)
[4]
  GI50: 16.4 µM (inactive)
[5]
  GI50: 6 µM (inactive)
[6]
  GI50: 5.9 µM (inactive)
[7]
  GI50: 8.07 µM (inactive)
[8]
  GI50: 10.1 µM (inactive)
[9]
  GI50: 4.5 µM (inactive)
[10]
  GI50: 15.8 µM (inactive)
[11]
  GI50: 3.01 µM (inactive)
[12]
  GI50: 12 µM (inactive)
[13]
  GI50: 15.8 µM (inactive)
[14]
  GI50: 13.7 µM (inactive)
[15]
  GI50: 15.6 µM (inactive)
[16]
  GI50: 18.4 µM (inactive)
[17]
  GI50: 17.7 µM (inactive)
[18]
  GI50: 24.2 µM (inactive)
[19]
  GI50: 2.11 µM (inactive)
[20]
  GI50: 16.2 µM (inactive)

## Oc1ccc(Cc2cc(Cl)cc(Cl)c2O)cc1Cl
[1]
  GI50: 17.5 µM (inactive)
[2]
  GI50: 19.4 µM (inactive)
[3]
  GI50: 16.6 µM (inactive)
[4]
  GI50: 16.6 µM (inactive)
[5]
  GI50: 8.93 µM (inactive)
[6]
  GI50: 18.7 µM (inactive)
[7]
  GI50: 19.2 µM (inactive)
[8]
  GI50: 17.9 µM (inactive)
[9]
  GI50: 8.83 µM (inactive)
[10]
  GI50: 21.1 µM (inactive)
[11]
  GI50: 17.1 µM (inactive)
[12]
  GI50: 15.7 µM (inactive)
[13]
  GI50: 20 µM (inactive)
[14]
  GI50: 14.7 µM (inactive)
[15]
  GI50: 15.1 µM (inactive)
[16]
  GI50: 15.5 µM (inactive)
[17]
  GI50: 27.1 µM (inactive)
[18]
  GI50: 19.1 µM (inactive)
[19]
  GI50: 1.04 µM (active)
[20]
  GI50: < 0.01 µM (active)

## CCC1(C)NC(c2cnccn2)=NN1c1ccc(Cl)cc1 (stereo not given)
[1]
  GI50: > 100 µM (inactive)
[2]
  GI50: > 100 µM (inactive)
[3]
  GI50: 35.9 µM (inactive)
[4]
  GI50: > 100 µM (inactive)
[5]
  GI50: > 100 µM (inactive)
[6]
  GI50: 66.8 µM (inactive)
[7]
  GI50: 52.8 µM (inactive)
[8]
  GI50: > 100 µM (inactive)
[9]
  GI50: > 100 µM (inactive)
[10]
  GI50: > 100 µM (inactive)
[11]
  GI50: > 100 µM (inactive)
[12]
  GI50: > 100 µM (inactive)
[13]
  GI50: > 100 µM (inactive)
[14]
  GI50: > 100 µM (inactive)
[15]
  GI50: 29 µM (inactive)
[16]
  GI50: > 100 µM (inactive)
[17]
  GI50: > 100 µM (inactive)
[18]
  GI50: > 100 µM (inactive)
[19]
  GI50: 48.8 µM (inactive)
[20]
  GI50: 19.3 µM (inactive)

## CC1OC(OC2C(O)C(O)C(O)C(O)C2O)C(N)CC1NC(=N)C(=O)O (stereo not given)
[1]
  GI50: > 100 µM (inactive)
[2]
  GI50: > 100 µM (inactive)
[3]
  GI50: > 100 µM (inactive)
[4]
  GI50: > 100 µM (inactive)
[5]
  GI50: > 100 µM (inactive)
[6]
  GI50: > 100 µM (inactive)
[7]
  GI50: > 100 µM (inactive)
[8]
  GI50: > 100 µM (inactive)
[9]
  GI50: > 100 µM (inactive)
[10]
  GI50: > 100 µM (inactive)
[11]
  GI50: > 100 µM (inactive)
[12]
  GI50: > 100 µM (inactive)
[13]
  GI50: > 100 µM (inactive)
[14]
  GI50: > 100 µM (inactive)
[15]
  GI50: > 100 µM (inactive)
[16]
  GI50: > 100 µM (inactive)
[17]
  GI50: > 100 µM (inactive)
[18]
  GI50: > 100 µM (inactive)
[19]
  GI50: > 100 µM (inactive)
[20]
  GI50: > 100 µM (inactive)

## C=C([C@@]1(O)C[C@H]2[C@H](CCC2(OC)OC)[C@@H]2c3ccccc3O[C@@H]21)[Si](C)(C)C
[1]
  GI50: > 100 µM (inactive)
[2]
  GI50: > 100 µM (inactive)
[3]
  GI50: > 100 µM (inactive)
[4]
  GI50: > 100 µM (inactive)
[5]
  GI50: > 100 µM (inactive)
[6]
  GI50: > 100 µM (inactive)
[7]
  GI50: > 100 µM (inactive)
[8]
  GI50: > 100 µM (inactive)
[9]
  GI50: > 100 µM (inactive)
[10]
  GI50: > 100 µM (inactive)
[11]
  GI50: > 100 µM (inactive)
[12]
  GI50: 76.7 µM (inactive)
[13]
  GI50: > 100 µM (inactive)
[14]
  GI50: > 100 µM (inactive)
[15]
  GI50: > 100 µM (inactive)
[16]
  GI50: > 100 µM (inactive)
[17]
  GI50: > 100 µM (inactive)
[18]
  GI50: > 100 µM (inactive)
[19]
  GI50: 25.5 µM (inactive)
[20]
  GI50: > 100 µM (inactive)

## O=S1(=O)c2ccccc2C(=NO)c2ccccc21
[1]
  GI50: 70.3 µM (inactive)
[2]
  GI50: 35.3 µM (inactive)
[3]
  GI50: 80.2 µM (inactive)
[4]
  GI50: > 100 µM (inactive)
[5]
  GI50: > 100 µM (inactive)
[6]
  GI50: > 100 µM (inactive)
[7]
  GI50: > 100 µM (inactive)
[8]
  GI50: 64 µM (inactive)
[9]
  GI50: > 100 µM (inactive)
[10]
  GI50: > 100 µM (inactive)
[11]
  GI50: > 100 µM (inactive)
[12]
  GI50: 28.2 µM (inactive)
[13]
  GI50: > 100 µM (inactive)
[14]
  GI50: > 100 µM (inactive)
[15]
  GI50: 92.9 µM (inactive)
[16]
  GI50: > 100 µM (inactive)
[17]
  GI50: > 100 µM (inactive)
[18]
  GI50: > 100 µM (inactive)
[19]
  GI50: 14.8 µM (inactive)
[20]
  GI50: > 100 µM (inactive)

## COc1cc(O)c2c(O)c3c(c4c2c1[C@]1(C4)C(C)=CCCC1(C)C)[C@H](O)[C@@]1(O)CC(O)=C(C(N)=O)C(=O)[C@@]1(O)C3=O
[1]
  GI50: 0.175 µM (active)
[2]
  GI50: 0.18 µM (active)
[3]
  GI50: 0.305 µM (active)
[4]
  GI50: 0.269 µM (active)
[5]
  GI50: 0.333 µM (active)
[6]
  GI50: 0.209 µM (active)
[7]
  GI50: 0.0453 µM (active)
[8]
  GI50: 0.643 µM (active)
[9]
  GI50: 0.0667 µM (active)
[10]
  GI50: 0.239 µM (active)
[11]
  GI50: 0.166 µM (active)
[12]
  GI50: 0.34 µM (active)
[13]
  GI50: 0.346 µM (active)
[14]
  GI50: 0.573 µM (active)
[15]
  GI50: 0.0531 µM (active)
[16]
  GI50: 0.236 µM (active)
[17]
  GI50: 0.348 µM (active)
[18]
  GI50: 0.0499 µM (active)
[19]
  GI50: 0.164 µM (active)
[20]
  GI50: 0.108 µM (active)
